For this assay, the target named is Bruton's Tyrosine Kinase (BTK), inactivated state (Homo sapiens (Human), UniProt Q06187). Briefly: Bruton's Tyrosine Kinase (BTK) Inhibition TR-FRET (Time Resolved FRET) competition assay. The assay is classed as binding. Conditions: BTK-Eu / Kinase Tracer 178 competition, incubated 18-24 h at 14° C. On the procedure: 10) Add 50 μL microscint-20 and count ^33P cpm on scintillation counter. • Calculate percent activity from raw data in cpm percent activity=(sample−bkg)/(total activity−bkg)×100 • Calculate IC50 from percent activity, using one-site dose response sigmoidal model y=A+((B−A)/(1+((x/C)^D)))) • x=cmpd conc, y=% activity, A=min, B=max, C=IC50, D=1 (hill slope) Bruton's Tyrosine Kinase (BTK) Inhibition TR-FRET (Time Resolved FRET) Assay
Sequence of Bruton's Tyrosine Kinase (BTK), inactivated state (Q06187 whole entry): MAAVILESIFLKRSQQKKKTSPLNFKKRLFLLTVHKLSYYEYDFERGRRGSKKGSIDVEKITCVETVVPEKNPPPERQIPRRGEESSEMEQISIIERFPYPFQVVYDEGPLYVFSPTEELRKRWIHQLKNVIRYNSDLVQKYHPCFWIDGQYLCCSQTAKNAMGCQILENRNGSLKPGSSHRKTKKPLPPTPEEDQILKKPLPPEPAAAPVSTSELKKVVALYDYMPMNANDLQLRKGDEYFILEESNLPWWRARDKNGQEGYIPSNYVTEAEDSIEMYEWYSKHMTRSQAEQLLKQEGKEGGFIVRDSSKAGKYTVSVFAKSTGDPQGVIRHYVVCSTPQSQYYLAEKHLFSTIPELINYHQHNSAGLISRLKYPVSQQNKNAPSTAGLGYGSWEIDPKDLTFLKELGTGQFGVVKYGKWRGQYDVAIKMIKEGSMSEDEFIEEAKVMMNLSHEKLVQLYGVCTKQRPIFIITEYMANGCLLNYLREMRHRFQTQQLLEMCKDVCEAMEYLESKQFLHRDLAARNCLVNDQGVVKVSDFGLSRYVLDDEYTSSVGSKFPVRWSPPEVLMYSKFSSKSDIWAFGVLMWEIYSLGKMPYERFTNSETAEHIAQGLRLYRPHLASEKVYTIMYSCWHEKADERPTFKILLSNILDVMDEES
This BTK competition assay measures compound potency (IC50) for the inactivated state of Bruton's Tyrosine Kinase using FRET (Förster/Flouresence Resonance Energy Transfer) technology. The BTK-Eu complex was incubated on ice one hour prior to use at a starting concentration of 50 nM BTK-Bioease™: 10 nM Eu-streptavidin (Perkin-Elmer Catalog# AD0062). The assay buffer consisted of 20 mM HEPES (pH 7.15), 0.1 mM DTT, 10 mM MgCl2, 0.5 mg/ml BSA with 3% Kinase Stabilizer (Fremont Biosolutions, Catalog # STB-K02). After 1 h, the reaction mixture from above was diluted 10 fold in assay buffer to make 5 nM BTK: 1 nM Eu-Streptavidin complex (donor fluorophore). 18 μl of a mixture of 0.11 nM BTK-Eu and 0.11 nM Kinase Tracer 178 (Invitrogen, Catalog # PV5593) with BTK-Eu alone as no negative control, was then dispensed into 384-well flat bottom plates (Greiner, 784076). Compounds to be tested in assay were prepared as 10× concentrations and serial dilution in half-log increments was performed in DMSO so as to generate 10 point curves. To initiate the FRET reaction, compounds prepared as 10× stock in DMSO was added to the plates and the plates were incubated 18-24 h at 14° C.

pIC50: −log10 of the molar value.

As a reminder, the pIC50 is −log10 of the IC50, conventionally taken in molar units. Read a low pIC50 as a large IC50.

For the compound `Cn1nc(-c2cccc(N3CCOc4cc(C(C)(C)CO)ccc4C3=O)c2CO)cc(Nc2ccc(S(C)(=O)=O)cn2)c1=O` [Compound 3, 4-[2-(hydroxymethyl)-3-[1-methyl-5-[(5-methylsulfonylpyridin-2-yl)amino]-6-oxopyridazin-3-yl]phenyl]-8-(1-hydroxy-2-methylpropan-2-yl)-2,3-dihydro-1,4-benzoxazepin-5-one], the pIC50 is 7.28.

In turn, `Cn1nc(-c2cccc(N3CCOc4cc(C(C)(C)C)ccc4C3=O)c2CO)cc(Nc2ccc(C(=O)N3CCOCC3)cn2)c1=O` [Compound 8, 8-tert-butyl-4-[2-(hydroxymethyl)-3-[1-methyl-5-[[5-(morpholine-4-carbonyl)pyridin-2-yl]amino]-6-oxopyridazin-3-yl]phenyl]-2,3-dihydro-1,4-benzoxazepin-5-one] had a pIC50 of 8.75. `Cn1nc(-c2cccc(N3CCc4cc(C(C)(C)C)ncc4C3=O)c2CO)cc(Nc2ccc(C(=O)N3CCOCC3)cn2)c1=O` [Compound 6, 6-tert-butyl-2-[2-(hydroxymethyl)-3-[1-methyl-5-[[5-(morpholine-4-carbonyl)pyridin-2-yl]amino]-6-oxopyridazin-3-yl]phenyl]-3,4-dihydro-2,7-naphthyridin-1-one] had a pIC50 of 7.84. The same measure for `Cn1cc(-c2cccc(N3CCc4cc(C(C)(C)C)ncc4C3=O)c2CO)cc(Nc2ccc(C(=O)N3CCOCC3)cn2)c1=O` [Compound 5, 6-tert-butyl-2-[2-(hydroxymethyl)-3-[1-methyl-5-[[5-(morpholine-4-carbonyl)pyridin-2-yl]amino]-6-oxopyridin-3-yl]phenyl]-3,4-dihydro-2,7-naphthyridin-1-one]: 7.86. Turning to `Cn1nc(-c2cccc(N3CCc4cc(C(C)(C)C#N)ccc4C3=O)c2CO)cc(Nc2ccc(C(=O)N3CCOCC3)cn2)c1=O` [Compound 1, 2-[2-[2-(hydroxymethyl)-3-[1-methyl-5-[[5-(morpholine-4-carbonyl)pyridin-2-yl]amino]-6-oxopyridazin-3-yl]phenyl]-1-oxo-3,4-dihydroisoquinolin-6-yl]-2-methylpropanenitrile], the pIC50 was 7.95.

For `Cn1cc(-c2cccc(NC(=O)N3Cc4ccc(Cl)cc4C3)c2CO)cc(Nc2ccc(C(=O)N3CCOCC3)cn2)c1=O` [Compound 4, 5-chloro-N-[2-(hydroxymethyl)-3-[1-methyl-5-[[5-(morpholine-4-carbonyl)pyridin-2-yl]amino]-6-oxopyridin-3-yl]phenyl]-1,3-dihydroisoindole-2-carboxamide], the pIC50 is 7.50. Regarding `Cn1nc(-c2cccc(-n3ccc4cc(C(C)(C)C#N)cc(F)c4c3=O)c2CO)cc(Nc2ccc(OC(C)(C)CO)cn2)c1=O` [Compound 2, 2-[8-fluoro-2-[2-(hydroxymethyl)-3-[5-[[5-(1-hydroxy-2-methylpropan-2-yl)oxypyridin-2-yl]amino]-1-methyl-6-oxopyridazin-3-yl]phenyl]-1-oxoisoquinolin-6-yl]-2-methylpropanenitrile], the pIC50 is 8.95.

As for `Cn1nc(-c2cccc(N3CCOc4cc(C(C)(C)C)ccc4C3=O)c2CO)cc(Nc2ccc(S(C)(=O)=O)cn2)c1=O` [Compound 9, 8-tert-butyl-4-[2-(hydroxymethyl)-3-[1-methyl-5-[(5-methylsulfonylpyridin-2-yl)amino]-6-oxopyridazin-3-yl]phenyl]-2,3-dihydro-1,4-benzoxazepin-5-one], the negative-log IC50 (pIC50) was 8.37. As to `Cc1c(-c2cc(Nc3ccc(C(=O)N4CCOCC4)cn3)c(=O)n(C)n2)cccc1-n1ncc2cc(C(C)(C)C)cc(F)c2c1=O` [Compound 7, 6-tert-butyl-8-fluoro-2-[2-methyl-3-[1-methyl-5-[[5-(morpholine-4-carbonyl)pyridin-2-yl]amino]-6-oxopyridazin-3-yl]phenyl]phthalazin-1-one], the pIC50 was 8.19.

The record behind these values is US9663494B2, “Inhibitors of bruton's tyrosine kinase” (Hoffmann-La Roche Inc., priority 2013, dated 2017).
